From paper PMC6669322, “Small Molecule Binding to Alzheimer Risk Factor CD33 Promotes Aβ Phagocytosis” (iScience, 2019)

Experiments:
[1] = test system: human CD33-transfected BV2 cells; experiment: Aβ42 phagocytosis assay (Aβ42 pHrodo uptake); format: cell-based, murine; settings: cells pre-treated with millimolar concentration of the ligand, in words
Description: (§1) Having shown that P22 binds specifically to the sialic acid-binding site of this domain we now have a chemical tool to answer the question of whether the sialic acid-binding site is the appropriate target for small molecule ligands that might promote Aβ uptake. Siglecs preferentially recognize multivalent presentation of their ligands ([Rillahan et al., 2014], [Büll et al., 2016]), and for this reason we conjugated the biotinylated form of P22 to microparticles labeled with both FITC and streptavidin (P22 microparticles) (see Transparent Methods). More than 60% CD33-transfected BV2 cells were positive for P22 microparticles compared with only 30% cells that were only incubated with control particles (unconjugated to P22) (Figure 4A). Although some P22 microparticles also bind to non-transfected cells, the difference remains significant for the cells transfected with CD33. This led us to believe that the compound bound preferentially to CD33 (Figure 4A). […]
(§2) Figure 4 Effect of P22 on Phagocytosis The cells were treated with P22 conjugated to microparticles labeled with both streptavidin and fluorescein isothiocyanate (FITC), or with microparticles without P22 conjugated as control. […] (C) Quantification of phagocytic differentiated human THP-1 cells after incubation with P22 monomer, P22 conjugated microparticles, or microparticles without P22 conjugation. […]

CD33 = test system: CD33; design: method as in Blixt et al., 2003; settings: order of magnitude in words; ref Blixt et al., 2003; cited from earlier work
[2] = test system: differentiated THP-1 cells; experiment: THP-1 phagocytosis assay (pHrodo E. coli BioParticles), wild-type cells; format: cell-based, human; settings: co-treatment, all treatment groups, in words
Description: as §1, with “4A).” for “4A). Although some P22 microparticles also bind to non-transfected cells, the difference remains significant for the cells transfected with CD33. This led us to believe that the compound bound preferentially to CD33 (Figure 4A).”
as §2
THP-1 cells (control and CD33KO) were differentiated in growth media (RPMI 1640, 10% FCS) supplemented with 100 ng/mL PMA for 3 days. […] Differentiated cells were then lifted, counted and 75,000 cells/well were plated in a 96 well plate. […]

| Structure (SMILES) | effect on phagocytosis [1] | affinity for CD33 (CD33) | effect of co-treatment on phagocytosis [2] |
| --- | --- | --- | --- |
| CC(=O)N[C@H]1[C@H]([C@H](O)[C@H](O)CO)O[C@@](O[C@H]2[C@@H](O)[C@@H](CO)O[C@@H](O[C@H]3[C@H](O)[C@@H](O)C(O)O[C@@H]3CO)[C@@H]2O)(C(=O)O)C[C@@H]1O (stereo partly drawn) [3′-sialyllactose] | no difference | millimolar |  |
| C=C1[C@@H](C)[C@H]2[C@H](Cc3ccccc3)NC(=O)[C@]23[C@H](OC(C)=O)/C=C/[C@@](C)(O)C(=O)[C@@H](C)C/C=C/[C@H]3[C@@H]1O [cytochalasin D] |  |  | blocked phagocytosis |
